According to patent US10738056B2 (Aduro BioTech, Inc., priority 2017, dated 2020):

Biological target: Human cGAS amino acids 155-522 (Homo sapiens (Human), UniProt Q8N884)
Assay: cGAS biochemical activity assay (ATP remaining, Kinase-Glo Max luminescence)
Details: human cGAS 155-522, ATP remaining (Kinase-Glo Max); read-out: cGAS IC50

Sequence of Human cGAS amino acids 155-522 (Q8N884 157-522): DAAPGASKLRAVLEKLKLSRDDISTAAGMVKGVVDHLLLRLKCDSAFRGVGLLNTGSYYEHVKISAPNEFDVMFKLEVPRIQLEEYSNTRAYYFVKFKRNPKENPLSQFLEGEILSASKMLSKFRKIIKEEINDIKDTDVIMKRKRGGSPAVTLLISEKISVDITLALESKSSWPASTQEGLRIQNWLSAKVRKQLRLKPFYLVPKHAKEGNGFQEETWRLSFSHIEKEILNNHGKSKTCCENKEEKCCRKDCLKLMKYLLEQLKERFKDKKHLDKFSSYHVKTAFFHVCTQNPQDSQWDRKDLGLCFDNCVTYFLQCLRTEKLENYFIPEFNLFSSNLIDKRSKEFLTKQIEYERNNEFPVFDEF

Question: With `COc1cccc2c1nc(-c1c(C)[nH]c3c(-c4ccccc4)c(C(F)(F)F)nn3c1=O)n2CC1CC1` [Compound C1189, 6-(1-(cyclopropylmethyl)-4-methoxy-1H-benzo[d]imidazol-2-yl)-5-methyl-3-phenyl-2-(trifluoromethyl)pyrazolo[1,5-a]pyrimidin-7(4H)-one] as the compound, how does the IC50 read?
Answer: 20 to 250 µM

Question: Which IC50 does the source give for `CN(Cc1ccccc1)C(=O)c1c[nH]c2c(-c3ccccc3)c(C(F)(F)F)nn2c1=O` [Compound A1013, N-benzyl-N-methyl-7-oxo-3-phenyl-2-(trifluoromethyl)-4,7-dihydropyrazolo[1,5-a]pyrimidine-6-carboxamide] here?
Answer: > 250 µM

Question: `Cc1[nH]c2c(-c3ccccc3)c(C(F)(F)F)nn2c(=O)c1-c1nc2ccccc2n1CC1CCCC1` [Compound C1235, 6-(1-(cyclopentylmethyl)-1H-benzo[d]imidazol-2-yl)-5-methyl-3-phenyl-2-(trifluoromethyl)pyrazolo[1,5-a]pyrimidin-7(4H)-one] was tested. Which IC50 did it give?
Answer: 20 to 250 µM

Question: With `Cc1[nH]c2c(-c3ccccc3)c(C(F)(F)F)nn2c(=O)c1-c1nnc(-c2ccc(N)cc2)o1` [Compound D1081, 6-(5-(4-aminophenyl)-1,3,4-oxadiazol-2-yl)-5-methyl-3-phenyl-2-(trifluoromethyl)pyrazolo[1,5-a]pyrimidin-7(4H)-one] as the compound, how does the IC50 read?
Answer: > 250 µM

Question: For `Cc1[nH]c2c(-c3ccccc3)c(C(F)(F)F)nn2c(=O)c1C(=O)Nc1ccncc1` [Compound A1047, 5-methyl-7-oxo-3-phenyl-N-(pyridin-4-yl)-2-(trifluoromethyl)-4,7-dihydropyrazolo[1,5-a]pyrimidine-6-carboxamide], which IC50 is on record?
Answer: 20 to 250 µM

Question: Which IC50 does the source give for `COc1cc(F)cc(NC(=O)c2c(C)[nH]c3c(-c4ccccc4)c(C(F)(F)F)nn3c2=O)c1` [Compound A1133, N-(3-fluoro-5-methoxyphenyl)-5-methyl-7-oxo-3-phenyl-2-(trifluoromethyl)-4,7-dihydropyrazolo[1,5-a]pyrimidine-6-carboxamide] here?
Answer: < 20 µM

Question: With `COc1cccc(NC(=O)c2c(C)[nH]c3c(-c4ccccc4)c(C(F)(F)F)nn3c2=O)c1OC` [Compound A1043, N-(2,3-dimethoxyphenyl)-5-methyl-7-oxo-3-phenyl-2-(trifluoromethyl)-4,7-dihydropyrazolo[1,5-a]pyrimidine-6-carboxamide] as the compound, how does the IC50 read?
Answer: 20 to 250 µM

Question: `COc1cccc2oc(-c3c(C)[nH]c4c(-c5ccccc5)c(C#CC5CC5)nn4c3=O)nc12` [Compound C1228, 2-(cyclopropylethynyl)-6-(4-methoxybenzo[d]oxazol-2-yl)-5-methyl-3-phenylpyrazolo[1,5-a]pyrimidin-7(4H)-one] was tested. Which IC50 did it give?
Answer: 20 to 250 µM

Question: Which IC50 does the source give for `Cc1[nH]c2c(-c3ccccc3)c(C(F)(F)F)nn2c(=O)c1-c1nnc(C2CCCCN2C(=O)OC(C)(C)C)o1` (stereo not shown) [Compound D1045, tert-butyl 2-(5-(5-methyl-7-oxo-3-phenyl-2-(trifluoromethyl)-4,7-dihydropyrazolo[1,5-a]pyrimidin-6-yl)-1,3,4-oxadiazol-2-yl)piperidine-1-carboxylate] here?
Answer: 20 to 250 µM

Question: How did the IC50 turn out when `Cc1[nH]c2c(-c3ccccc3)c(C(F)(F)F)nn2c(=O)c1-c1nnc(-c2cccnc2O)o1` [Compound D1067, 6-(5-(2-hydroxypyridin-3-yl)-1,3,4-oxadiazol-2-yl)-5-methyl-3-phenyl-2-(trifluoromethyl)pyrazolo[1,5-a]pyrimidin-7(4H)-one] was run?
Answer: < 20 µM

Question: How did the IC50 turn out when `COc1cncc(NC(=O)c2c(C)[nH]c3c(-c4ccccc4)c(C(F)(F)F)nn3c2=O)n1` [Compound A1098, N-(6-methoxypyrazin-2-yl)-5-methyl-7-oxo-3-phenyl-2-(trifluoromethyl)-4,7-dihydropyrazolo[1,5-a]pyrimidine-6-carboxamide] was run?
Answer: 20 to 250 µM

Question: For `COc1ccc(-c2c(C(F)(F)F)nn3c(=O)c(-c4nc5c(OC)cccc5o4)c(C)[nH]c23)cc1` [Compound C1115, 6-(4-methoxybenzo[d]oxazol-2-yl)-3-(4-methoxyphenyl)-5-methyl-2-(trifluoromethyl)pyrazolo[1,5-a]pyrimidin-7(4H)-one], which IC50 is on record?
Answer: 20 to 250 µM

Question: Which IC50 does the source give for `Cc1[nH]c2c(-c3ccccc3)c(C(F)(F)F)nn2c(=O)c1C(=O)Nc1[nH]nc(C(F)(F)F)c1C1CCCC1` [Compound A1061, N-(4-cyclopentyl-3-(trifluoromethyl)-1H-pyrazol-5-yl)-5-methyl-7-oxo-3-phenyl-2-(trifluoromethyl)-4,7-dihydropyrazolo[1,5-a]pyrimidine-6-carboxamide] here?
Answer: 20 to 250 µM

Question: For `Cc1[nH]c2c(-c3ccccc3)c(C(F)(F)F)nn2c(=O)c1C(=O)Nc1nn(C)cc1C#N` [Compound A1090, N-(4-cyano-1-methyl-1H-pyrazol-3-yl)-5-methyl-7-oxo-3-phenyl-2-(trifluoromethyl)-4,7-dihydropyrazolo[1,5-a]pyrimidine-6-carboxamide], which IC50 is on record?
Answer: < 20 µM

Question: `COc1cccc2oc(-c3c(C)[nH]c4c(-c5ccccc5)c(OC5CCOCC5)nn4c3=O)nc12` [Compound C1080, 6-(4-methoxybenzo[d]oxazol-2-yl)-5-methyl-3-phenyl-2-((tetrahydro-2H-pyran-4-yl)oxy)pyrazolo[1,5-a]pyrimidin-7(4H)-one] was tested. Which IC50 did it give?
Answer: 20 to 250 µM

Question: Which IC50 does the source give for `Cc1[nH]c2c(-c3ccccc3)c(C(F)(F)F)nn2c(=O)c1C(=O)Nc1cccc(OC(F)(F)F)c1` [Compound A1050, 5-methyl-7-oxo-3-phenyl-N-(3-(trifluoromethoxy)phenyl)-2-(trifluoromethyl)-4,7-dihydropyrazolo[1,5-a]pyrimidine-6-carboxamide] here?
Answer: 20 to 250 µM

Question: For `Cc1[nH]c2c(-c3ccccc3)c(C(F)(F)F)nn2c(=O)c1C(=O)Nc1ccc(S(C)(=O)=O)cn1` [Compound A1108, 5-methyl-N-(5-(methylsulfonyl)pyridin-2-yl)-7-oxo-3-phenyl-2-(trifluoromethyl)-4,7-dihydropyrazolo[1,5-a]pyrimidine-6-carboxamide], which IC50 is on record?
Answer: 20 to 250 µM

Question: Which IC50 does the source give for `COc1c(Br)cccc1NC(=O)c1c(C)[nH]c2c(-c3ccccc3)c(C(F)(F)F)nn2c1=O` [Compound A1130, N-(3-bromo-2-methoxyphenyl)-5-methyl-7-oxo-3-phenyl-2-(trifluoromethyl)-4,7-dihydropyrazolo[1,5-a]pyrimidine-6-carboxamide] here?
Answer: 20 to 250 µM

Question: Which IC50 does the source give for `COc1cccc2oc(-c3c(C)[nH]c4c(-c5ccc(C)cc5)c(C(F)(F)F)nn4c3=O)nc12` [Compound C1171] here?
Answer: 20 to 250 µM

Question: Which IC50 does the source give for `Cc1[nH]c2c(-c3cccc(F)c3)c(C(F)(F)F)nn2c(=O)c1-c1nc2c(o1)CCCC2` [Compound C1035, 3-(3-fluorophenyl)-5-methyl-6-(4,5,6,7-tetrahydrobenzo[d]oxazol-2-yl)-2-(trifluoromethyl)pyrazolo[1,5-a]pyrimidin-7(4H)-one] here?
Answer: > 250 µM

Question: For `Cc1[nH]c2c(-c3ccccc3)c(C(F)(F)F)nn2c(=O)c1CC(=O)Nc1ccccc1N` [Compound B1001, N-(2-aminophenyl)-2-(5-methyl-7-oxo-3-phenyl-2-(trifluoromethyl)-4,7-dihydropyrazolo[1,5-a]pyrimidin-6-yl)acetamide], which IC50 is on record?
Answer: 20 to 250 µM

Question: For `Cc1[nH]c2c(-c3ccccc3)c(C(F)(F)F)nn2c(=O)c1C(=O)Nc1ccnn1C` [Compound A1078, 5-methyl-N-(1-methyl-1H-pyrazol-5-yl)-7-oxo-3-phenyl-2-(trifluoromethyl)-4,7-dihydropyrazolo[1,5-a]pyrimidine-6-carboxamide], which IC50 is on record?
Answer: 20 to 250 µM
